From ChEMBL document CHEMBL3045056, “Structures and Biological Activities of Phytotoxins Produced by the Plant Pathogenic Fungus Bipolaris cynodontis cynA” (J Pestic Sci, 1998)
Active and inactive are the calls of the source. The calls are words filed in the database; no cut-off is given here.

Columns and labels:
Lolium multiflorum = assay: Phytotoxicity against Lolium multiflorum (Italian ryegrass) seedlings assessed as inhibition of root growth at 100 ppm at 26 degC for 72 hr; format: functional, organism-based
[1] = Octanol-water partition coefficient, log K of the compound by reversed-phase HPLC; format: physicochemical; settings: read-out: log K
Oryza sativa = assay: Phytotoxicity in Oryza sativa (rice) seedlings assessed as assessed as inhibition of root growth at 100 ppm at 26 degC for 72 hr; format: functional, organism-based

Row | SMILES | inhibition (Lolium multiflorum) | logP [1] | inhibition (Oryza sativa)
1 | CC[C@H](C)[C@@H](O)[C@@H](C)C1=C(CC(C)=O)C(=O)C2=C(O[C@]3(C)CC[C@H]4O[C@@H](C(C)(C)O)CC[C@]4(C)[C@H]3[C@@H]2O)[C@]1(O)OC [COCHLIOQUINOL III] | Active | 0.31 | Active
2 | CC[C@H](C)[C@@H](O)[C@@H](C)C1=CC(=O)C2=C(O[C@]3(C)CC[C@H]4O[C@@H](C(C)(C)O)CC[C@]4(C)[C@H]3[C@@H]2O)[C@]1(O)CC(C)=O [COCHLIOQUINOL II] | Active | -0.05 | Active
3 | CC[C@H](C)C(=O)[C@@H](C)C1=CC(=O)C2=C(O[C@]3(C)CC[C@H]4O[C@@H](C(C)(C)O)CC[C@]4(C)[C@H]3[C@@H]2O)[C@]1(O)CC(C)=O [COCHLIOQUINOL] | Active | -0.238 | Active
4 | CC[C@H](C)[C@@H](OC(C)=O)[C@@H](C)C1=CC(=O)C2=C(O[C@]3(C)CC[C@H]4O[C@@H](C(C)(C)O)CC[C@]4(C)[C@H]3[C@@H]2O)C1=O [COCHLIOQUINONE A] | Active | 0.337 | Active
5 | CC[C@H](C)C(=O)[C@@H](C)C1=CC(=O)C2=C(O[C@]3(C)CC[C@H]4O[C@@H](C(C)(C)O)CC[C@]4(C)[C@H]3C2)C1=O [COCHLIOQUINONE B] | Active | 0.437 | Active
6 | CC[C@H](C)C(=O)[C@@H](C)C1=CC(=O)C2=C(O[C@]3(C)CC[C@H]4O[C@@H](C(C)(C)O)CC[C@]4(C)[C@H]3[C@@H]2O)C1=O [COCHLIOQUINONE C] | Active | 0.091 | Active
7 | C/C=C(\C)C(=O)[C@@H](C)C1=CC(=O)C2=C(O[C@]3(C)CC[C@H]4O[C@@H](C(C)(C)O)CC[C@]4(C)[C@H]3C2)C1=O [COCHLIOQUINONE D] | Active | 0.287 | Active
8 | CC[C@H](C)C(=O)[C@@H](C)C1=CC(=O)C2=C(O[C@]3(C)CC[C@H]4O[C@@H](C(C)(C)O)C[C@H](O)[C@]4(C)[C@H]3C2)C1=O [COCHLIOQUINONE E] | Active | 0.013 | Active
9 | CC[C@H](C)[C@@H](OC(C)=O)[C@@H](C)c1cc(O)c2c(c1O)O[C@]1(C)CC[C@H]3O[C@@H](C(C)(C)O)CC[C@]3(C)[C@H]1C2=O [ISOCOCHLIOQUINONE A] | Active | 0.699 | Active
10 | CC[C@H](C)C(=O)[C@@H](C)c1cc(O)c2c(c1O)O[C@]1(C)CC[C@H]3O[C@@H](C(C)(C)O)CC[C@]3(C)[C@H]1C2=O [ISOCOCHLIOQUINONE C] | Active | 0.482 | Active
11 | C/C=C(\C)[C@@H](OC(C)=O)[C@@H](C)C1=CC(=O)C2=C(O[C@]3(C)CC[C@H]4O[C@@H](C(C)(C)O)CC[C@]4(C)[C@H]3[C@@H]2O)C1=O [STEMPHONE] | Active | 0.224 | Active
